Measurements taken from US12662498B2 (priority 2017, dated 2026).

Test: ICH stability study of psilocybin batches (appearance, water content, purity, assay)

With `CN(C)CCc1c[nH]c2cccc(OP(=O)(O)O)c12` [Batch 170231] as the compound, how does the “Impurities by HPLC: RRT 1.62 (Psilocin)” value (T = 6 months, 2-8° C.) read?
The value was 0.35%.

What about the “Impurities by HPLC: RRT 1.70” value (T = 6 months, 2-8° C.) of the same compound?
Its value is “LT 0.05%”.

And the “Impurities by HPLC: line without printed RRT (after RRT0.69)” value (T = 6 months, 2-8° C.)?
Its value is 0.07%.

What about the “Impurity at RRT 1.89” value (T = 6 months, 2-8° C.) of the same compound?
Its value is “LT 0.05%”.

And the “Impurity at RRT 2.45” value (T = 6 months, 2-8° C.)?
Its value is “LT 0.05%”.

What about the “Total Impurities” value (T = 6 months, 2-8° C.) of the same compound?
The value was 0.80%.

What about the “Water content by loss on drying” value (T = 6 months, 2-8° C.) of the same compound?
Its value is 0.06% ^w/w % w/w.

What about the Appearance (T = 6 months, 25° C./60% RH) of the same compound?
Its Appearance is “An off white solid”.

And the “Assay by HPLC (on a dry basis)” value (T = 6 months, 25° C./60% RH)?
Its value is 98.04% ^w/w % w/w.

What about the “Chemical Purity By HPLC” value (T = 6 months, 25° C./60% RH) of the same compound?
Its value is 99.19%.

What about the “Impurities LT 0.05%” value (T = 6 months, 25° C./60% RH) of the same compound?
Its value is 0.34%.

And the “Impurities by HPLC: RRT0.69” value (T = 6 months, 25° C./60% RH)?
The value was 0.06%.

And the “Impurities by HPLC: RRT 1.49” value (T = 6 months, 25° C./60% RH)?
The value was “LT 0.05%”.

And the “Impurities by HPLC: RRT 1.62 (Psilocin)” value (T = 6 months, 25° C./60% RH)?
Its value is 0.34%.

And the “Impurities by HPLC: RRT 1.70” value (T = 6 months, 25° C./60% RH)?
Its value is “LT 0.05%”.

What about the “Impurities by HPLC: line without printed RRT (after RRT0.69)” value (T = 6 months, 25° C./60% RH) of the same compound?
Its value is 0.07%.

And the “Impurity at RRT 1.89” value (T = 6 months, 25° C./60% RH)?
Its value is “LT 0.05%”.

What about the “Impurity at RRT 2.45” value (T = 6 months, 25° C./60% RH) of the same compound?
Its value is “LT 0.05%”.

And the “Total Impurities” value (T = 6 months, 25° C./60% RH)?
The value was 0.81%.

And the “Water content by loss on drying” value (T = 6 months, 25° C./60% RH)?
Its value is 0.32% ^w/w % w/w.

What about the Appearance (T = 6 months, 40° C./75% RH) of the same compound?
Its Appearance is “An off white solid”.

And the “Assay by HPLC (on a dry basis)” value (T = 6 months, 40° C./75% RH)?
Its value is 100.10% ^w/w % w/w.

What about the “Chemical Purity By HPLC” value (T = 6 months, 40° C./75% RH) of the same compound?
The value was 99.12%.

And the “Impurities LT 0.05%” value (T = 6 months, 40° C./75% RH)?
The value was 0.36%.

And the “Impurities by HPLC: RRT0.69” value (T = 6 months, 40° C./75% RH)?
The value was 0.06%.

And the “Impurities by HPLC: RRT 1.49” value (T = 6 months, 40° C./75% RH)?
The value was “LT 0.05%”.

What about the “Impurities by HPLC: RRT 1.62 (Psilocin)” value (T = 6 months, 40° C./75% RH) of the same compound?
The value was 0.38%.

And the “Impurities by HPLC: RRT 1.70” value (T = 6 months, 40° C./75% RH)?
Its value is “LT 0.05%”.

And the “Impurities by HPLC: line without printed RRT (after RRT0.69)” value (T = 6 months, 40° C./75% RH)?
The value was 0.08%.

And the “Impurity at RRT 1.89” value (T = 6 months, 40° C./75% RH)?
The value was “LT 0.05%”.

And the “Impurity at RRT 2.45” value (T = 6 months, 40° C./75% RH)?
The value was “LT 0.05%”.

What about the “Total Impurities” value (T = 6 months, 40° C./75% RH) of the same compound?
The value was 0.88%.

And the “Water content by loss on drying” value (T = 6 months, 40° C./75% RH)?
Its value is 2.26% ^w/w % w/w.

What about the Appearance (T = 9 months, 2-8° C.) of the same compound?
Its Appearance is “An off white solid”.

And the “Assay by HPLC (on a dry basis)” value (T = 9 months, 2-8° C.)?
The value was 97.53% ^w/w % w/w.

And the “Chemical Purity By HPLC” value (T = 9 months, 2-8° C.)?
Its value is 99.16%.

And the “Impurities by HPLC: RRT0.69” value (T = 9 months, 2-8° C.)?
The value was “LT 0.05%”.

And the “Impurities by HPLC: RRT 1.49” value (T = 9 months, 2-8° C.)?
Its value is 0.07%.

And the “Impurities by HPLC: RRT 1.62 (Psilocin)” value (T = 9 months, 2-8° C.)?
The value was 0.06%.

And the “Impurities by HPLC: RRT 1.70” value (T = 9 months, 2-8° C.)?
Its value is 0.37%.

What about the “Impurities by HPLC: line without printed RRT (after RRT0.69)” value (T = 9 months, 2-8° C.) of the same compound?
Its value is “LT 0.05%”.

What about the “Impurity at RRT 1.89” value (T = 9 months, 2-8° C.) of the same compound?
Its value is “LT 0.05%”.

And the “Impurity at RRT 2.45” value (T = 9 months, 2-8° C.)?
Its value is “LT 0.05%”.

And the “Total Impurities” value (T = 9 months, 2-8° C.)?
The value was 0.84%.

And the “Water content by loss on drying” value (T = 9 months, 2-8° C.)?
The value was 0.21% ^w/w % w/w.

What about the Appearance (T = 9 months, 25° C./60% RH) of the same compound?
Its Appearance is “An off white solid”.

And the “Assay by HPLC (on a dry basis)” value (T = 9 months, 25° C./60% RH)?
Its value is 98.12% ^w/w % w/w.

What about the “Chemical Purity By HPLC” value (T = 9 months, 25° C./60% RH) of the same compound?
Its value is 99.16%.

And the “Impurities by HPLC: RRT0.69” value (T = 9 months, 25° C./60% RH)?
Its value is “LT 0.05%”.

What about the “Impurities by HPLC: RRT 1.49” value (T = 9 months, 25° C./60% RH) of the same compound?
The value was 0.05%.

And the “Impurities by HPLC: RRT 1.62 (Psilocin)” value (T = 9 months, 25° C./60% RH)?
Its value is 0.06%.

What about the “Impurities by HPLC: RRT 1.70” value (T = 9 months, 25° C./60% RH) of the same compound?
Its value is 0.37%.

And the “Impurities by HPLC: line without printed RRT (after RRT0.69)” value (T = 9 months, 25° C./60% RH)?
Its value is “LT 0.05%”.

And the “Impurity at RRT 1.89” value (T = 9 months, 25° C./60% RH)?
The value was “LT 0.05%”.

And the “Impurity at RRT 2.45” value (T = 9 months, 25° C./60% RH)?
The value was “LT 0.05%”.

What about the “Total Impurities” value (T = 9 months, 25° C./60% RH) of the same compound?
Its value is 0.84%.

And the “Water content by loss on drying” value (T = 9 months, 25° C./60% RH)?
The value was 0.10% ^w/w % w/w.

And the Appearance (T = 12 months, 2-8° C.)?
Its Appearance is “An off white solid”.

And the “Assay by HPLC (on a dry basis)” value (T = 12 months, 2-8° C.)?
Its value is 99.63% ^w/w % w/w.

What about the “Chemical Purity By HPLC” value (T = 12 months, 2-8° C.) of the same compound?
Its value is 99.25%.

And the “Impurities LT 0.05%” value (T = 12 months, 2-8° C.)?
Its value is 0.38%.

And the “Impurities by HPLC: RRT0.69” value (T = 12 months, 2-8° C.)?
The value was “LT 0.05%”.

What about the “Impurities by HPLC: RRT 1.49” value (T = 12 months, 2-8° C.) of the same compound?
The value was “LT 0.05%”.

And the “Impurities by HPLC: RRT 1.62 (Psilocin)” value (T = 12 months, 2-8° C.)?
The value was 0.37%.

What about the “Impurities by HPLC: RRT 1.70” value (T = 12 months, 2-8° C.) of the same compound?
The value was “LT 0.05%”.

What about the “Impurity at RRT 1.89” value (T = 12 months, 2-8° C.) of the same compound?
Its value is “LT 0.05%”.

What about the “Impurity at RRT 2.45” value (T = 12 months, 2-8° C.) of the same compound?
Its value is “LT 0.05%”.

And the “Total Impurities” value (T = 12 months, 2-8° C.)?
The value was 0.75%.

What about the “Water content by loss on drying” value (T = 12 months, 2-8° C.) of the same compound?
The value was 0.49% ^w/w % w/w.

What about the Appearance (T = 12 months, 25° C./60% RH) of the same compound?
The Appearance was “An off white solid”.

What about the “Assay by HPLC (on a dry basis)” value (T = 12 months, 25° C./60% RH) of the same compound?
Its value is 98.97% ^w/w % w/w.

And the “Chemical Purity By HPLC” value (T = 12 months, 25° C./60% RH)?
Its value is 99.25%.

What about the “Impurities LT 0.05%” value (T = 12 months, 25° C./60% RH) of the same compound?
The value was 0.38%.

What about the “Impurities by HPLC: RRT0.69” value (T = 12 months, 25° C./60% RH) of the same compound?
Its value is “LT 0.05%”.

What about the “Impurities by HPLC: RRT 1.49” value (T = 12 months, 25° C./60% RH) of the same compound?
Its value is “LT 0.05%”.

What about the “Impurities by HPLC: RRT 1.62 (Psilocin)” value (T = 12 months, 25° C./60% RH) of the same compound?
Its value is 0.37%.

And the “Impurities by HPLC: RRT 1.70” value (T = 12 months, 25° C./60% RH)?
Its value is “LT 0.05%”.

What about the “Impurity at RRT 2.45” value (T = 12 months, 25° C./60% RH) of the same compound?
Its value is “LT 0.05%”.

What about the “Total Impurities” value (T = 12 months, 25° C./60% RH) of the same compound?
Its value is 0.75%.

What about the “Water content by loss on drying” value (T = 12 months, 25° C./60% RH) of the same compound?
Its value is 0.61% ^w/w % w/w.
